According to patent US20170088520A1, “DEUBIQUITINASE INHIBITORS” (PharmAkea, Inc., priority 2014, published 2017):

Legend:
[1] = biological target: T1, DUB activity in cells (NCI-H929, Z138, MM.1S, A375) (Homo sapiens, UniProt Q93008); experiment: HA-Ubiquitin-Vinylsulfone (HA-Ub-VS) cell labeling assay; assay type: cell-based; conditions: compound tested at 5 μM; HA-Ub-VS labeling of USP9x in cells
T1 construct: endogenous in cells; host or cells: NCI-H929, Z138, MM.1S, A375
Method in brief: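 NCI-H929, Z138, MM.1S or A375 cells (1–2×10^6) treated 2–6 h at 37 °C with compound in 0.5% DMSO, here 5 μM. Lysates labeled with HA-Ub-VS for 15–60 min at 37 °C. Labeled DUBs resolved by SDS-PAGE and quantified by anti-HA and anti-β-actin immunoblot with infrared detection.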

[2] = system: Mcl-1 expression in cells (NCI-H929, Z138, MM.1S, A-375); experiment: Analysis of Mcl-1 expression by Western blotting; assay type: cell-based; conditions: compound tested at 5 μM; Western blot
Method in brief: (§1)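 NCI-H929, Z138, MM.1S and A-375 cells were treated with compounds at 5 μM, and lysates were Western blotted with anti-Mcl-1 and anti-PARP antibodies, quantified by infrared fluorescence. Activity is a significant drop in Mcl-1 and the appearance of cleaved PARP, each relative to vehicle-treated cells.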

[3] = system: PARP cleavage in cells (NCI-H929, Z138, MM.1S, A-375); experiment: Analysis of PARP cleavage by Western blotting; assay type: cell-based; conditions: compound tested at 5 μM; Western blot
Method in brief: as §1

[4] = system: MM.1S myeloma tumor cells; experiment: In vivo tumor growth assay (xenograft model); conditions: SCID Beige mice injected with MM.1S myeloma tumor cells; 15 mpk three times per week
Description: Example B-3: In Vivo Tumor Growth Assay
A xenograft model is used to test efficacy of compounds in inhibiting tumor growth. Briefly, 1×10^6-2×10^7 tumor cell suspensions (Z138, A375, MM.1S, VCaP) are injected subcutaneously into the flank regions of mice (SCID, NSG, nude) in an equal volume of matrigel. Tumor volumes are measured using calipers and when the tumor volumes are ˜100 mm^3, test compound is administered every 1-3 days by oral gavage or by injection (intraperitoneal, intravenous, subcutaneous) until tumor volumes of the vehicle treated animals are ˜1000-2000 mm^3. Inhibition of primary tumor growth is evident as a significant decrease in tumor volume relative to the vehicle treated mice.
Following the above protocol using SCID Beige mice injected with MM.1S myeloma tumor cells and dosing with Compound 74 at 15 mpk three times per week, an approximately 50% reduction in tumor volume was observed

T1 sequence (Q93008 whole entry): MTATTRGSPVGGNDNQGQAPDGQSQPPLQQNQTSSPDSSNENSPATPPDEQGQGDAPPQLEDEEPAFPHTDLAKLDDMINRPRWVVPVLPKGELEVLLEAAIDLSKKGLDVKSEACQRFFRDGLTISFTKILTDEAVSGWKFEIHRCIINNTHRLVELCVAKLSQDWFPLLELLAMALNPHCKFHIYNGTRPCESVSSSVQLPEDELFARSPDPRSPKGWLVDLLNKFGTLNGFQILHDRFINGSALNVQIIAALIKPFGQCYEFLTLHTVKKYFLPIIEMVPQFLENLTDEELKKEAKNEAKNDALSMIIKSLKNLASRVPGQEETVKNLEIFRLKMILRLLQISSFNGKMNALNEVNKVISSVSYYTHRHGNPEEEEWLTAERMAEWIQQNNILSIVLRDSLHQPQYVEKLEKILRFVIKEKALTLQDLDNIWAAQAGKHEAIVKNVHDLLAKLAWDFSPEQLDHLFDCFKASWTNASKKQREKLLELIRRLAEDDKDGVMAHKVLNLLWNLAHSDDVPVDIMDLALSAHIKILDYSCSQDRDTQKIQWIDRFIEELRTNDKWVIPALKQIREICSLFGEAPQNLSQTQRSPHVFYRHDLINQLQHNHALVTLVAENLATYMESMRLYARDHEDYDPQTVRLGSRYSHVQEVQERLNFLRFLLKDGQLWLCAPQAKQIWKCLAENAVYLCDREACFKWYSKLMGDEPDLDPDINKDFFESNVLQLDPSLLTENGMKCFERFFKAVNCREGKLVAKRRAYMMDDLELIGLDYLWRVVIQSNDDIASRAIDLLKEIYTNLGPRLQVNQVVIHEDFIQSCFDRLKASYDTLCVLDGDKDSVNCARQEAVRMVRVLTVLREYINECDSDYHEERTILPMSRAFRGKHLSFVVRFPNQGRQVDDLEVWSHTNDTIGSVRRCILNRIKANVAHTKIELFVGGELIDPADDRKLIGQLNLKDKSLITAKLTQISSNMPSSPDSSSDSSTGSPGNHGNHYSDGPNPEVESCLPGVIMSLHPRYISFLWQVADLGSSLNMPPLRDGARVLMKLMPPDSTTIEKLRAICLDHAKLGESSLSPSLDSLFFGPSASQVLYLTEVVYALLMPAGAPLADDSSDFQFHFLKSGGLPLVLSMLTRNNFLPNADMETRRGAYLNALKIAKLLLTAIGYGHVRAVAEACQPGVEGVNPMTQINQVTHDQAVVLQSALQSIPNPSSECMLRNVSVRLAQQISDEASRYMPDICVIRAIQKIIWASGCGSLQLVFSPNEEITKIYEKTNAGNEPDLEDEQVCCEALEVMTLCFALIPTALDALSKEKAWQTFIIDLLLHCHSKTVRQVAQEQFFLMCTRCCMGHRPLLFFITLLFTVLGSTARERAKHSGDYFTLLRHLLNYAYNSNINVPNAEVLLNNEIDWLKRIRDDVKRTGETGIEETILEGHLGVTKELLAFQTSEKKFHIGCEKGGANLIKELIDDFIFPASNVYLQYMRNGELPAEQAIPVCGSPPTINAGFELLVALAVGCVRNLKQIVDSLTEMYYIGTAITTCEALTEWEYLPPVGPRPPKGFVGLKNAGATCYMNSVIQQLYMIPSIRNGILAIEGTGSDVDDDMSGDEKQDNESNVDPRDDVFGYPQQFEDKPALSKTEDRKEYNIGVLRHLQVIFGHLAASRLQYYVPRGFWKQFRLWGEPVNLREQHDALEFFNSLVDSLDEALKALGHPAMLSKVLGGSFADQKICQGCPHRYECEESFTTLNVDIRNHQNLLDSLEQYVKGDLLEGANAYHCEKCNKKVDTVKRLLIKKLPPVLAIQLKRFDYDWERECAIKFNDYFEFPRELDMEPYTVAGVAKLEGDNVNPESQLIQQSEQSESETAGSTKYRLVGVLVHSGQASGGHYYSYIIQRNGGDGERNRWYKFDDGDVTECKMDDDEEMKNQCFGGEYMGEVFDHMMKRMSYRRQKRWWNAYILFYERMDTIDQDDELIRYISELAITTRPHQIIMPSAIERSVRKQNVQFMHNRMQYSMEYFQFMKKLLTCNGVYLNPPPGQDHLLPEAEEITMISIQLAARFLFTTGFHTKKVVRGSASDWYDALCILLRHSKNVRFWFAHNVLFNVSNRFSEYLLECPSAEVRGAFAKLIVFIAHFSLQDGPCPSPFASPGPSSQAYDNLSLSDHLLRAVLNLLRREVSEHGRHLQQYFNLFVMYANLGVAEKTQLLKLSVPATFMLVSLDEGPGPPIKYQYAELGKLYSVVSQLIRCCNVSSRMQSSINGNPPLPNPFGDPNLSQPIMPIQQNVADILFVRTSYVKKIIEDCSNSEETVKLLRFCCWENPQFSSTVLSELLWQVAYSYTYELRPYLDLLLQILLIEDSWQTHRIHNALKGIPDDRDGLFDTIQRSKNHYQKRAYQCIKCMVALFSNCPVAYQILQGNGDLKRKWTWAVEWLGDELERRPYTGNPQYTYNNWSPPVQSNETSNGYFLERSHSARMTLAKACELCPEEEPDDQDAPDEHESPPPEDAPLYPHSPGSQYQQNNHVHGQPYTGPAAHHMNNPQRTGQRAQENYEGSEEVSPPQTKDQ

inhibition at 5 µM [1]: 50 to 75%
Compound: N#C/C(=C\c1cccc(Br)n1)C(=O)NC1(c2ccc(-c3cccc(C(=O)O)c3)cc2)CCCC1 [Compound 74, (E)-4′-(1-(3-(6-bromopyridin-2-yl)-2-cyanoacrylamido)cyclopentyl)-[1,1′-biphenyl]-3-carboxylic acid]
inhibition at 5 µM [2]: 50 to 75%
PARP cleavage % Inhibition [3]: A (A is ≧75% inhibition)
reduction in tumor volume [4]: approximately 50%
